Results taken from patent US10961200B2, “Small molecule inhibitors of lactate dehydrogenase and methods of use thereof” (THE UNITED STATES OF AMERICA, AS REPRESENTED BY THE …, priority 2014, dated 2021).
Like-named read-outs stand apart in the source and are kept apart here.

Target: Human LDHA (Homo sapiens (Human), UniProt P00338)
Assay: human LDHA primary biochemical assay (resazurin/diaphorase coupled, fluorescence)
Description: Test compounds were placed in a Greiner Bio-One (Monroe, N.C.) 1536-well black solid bottom assay plate. 200 millimolar (mM) Tris HCl, pH 7.4, 100 micromolar […] EDTA and 0.01% TWEEN-20™, final concentration, was used as the assay buffer. The LDHA reagent was 2 nanomolar (nM) Human LDHA (Meridian Life Science, Inc., Memphis, Tenn.), final concentration, in assay buffer.

[1] = LDHA inhibitory activity, assay of Example 1, activity level classes
[2] = read-out: Inhibitory activity IC50
[3] = LDHA inhibitory activity, activity level based on IC50 (Table 7)

Compound	IC50 [3] [nM]	further results
CCOC(=O)c1csc(-n2nc(-c3ccc(F)c(-c4cccc(OC)c4)c3)c(Cc3ccc(S(N)(=O)=O)c(F)c3)c2CC2CC2)n1 [Compound 322]	–	IC50 [1]: 1000 to 57000 nM
N[S+](=O)([O-])c1ccc(Cc2c(CC3CC3)nn(-c3nc(C(=O)O)cs3)c2-c2ccc(F)c(-c3cccc(F)c3)c2)c(F)c1 [Compound 323]	–	IC50 [2]: 1000 to 57000 nM
N[S+](=O)([O-])c1ccc(Cc2c(CC3CC3)nn(-c3nc(C(=O)O)cs3)c2-c2ccc(F)c(-c3cccc(F)c3)c2)cc1F [Compound 325]	–	IC50 [1]: 1000 to 57000 nM
COc1cccc(-c2cc(-c3nn(-c4nc(C(=O)O)cs4)c(CC4CC4)c3Cc3ccc(S(N)(=O)=O)cc3F)ccc2F)c1 [Compound 328]	–	IC50 [1]: < 100 nM
COc1cccc(-c2cc(-c3c(Cc4ccc([S+](N)(=O)[O-])c(F)c4)c(CC4CC4)nn3-c3nc(C(=O)O)cs3)ccc2F)c1 [Compound 329]	–	IC50 [2]: 1000 to 57000 nM
CCOC(=O)c1csc(-n2nc(-c3cccc(OC4CCCC4)c3)c(Cc3ccc(S(N)(=O)=O)c(F)c3)c2CC2CC2)n1 [Compound 333]	–	IC50 [1]: 1000 to 57000 nM
CCOC(=O)c1csc(-n2nc(-c3cccc(OC4CCCC4)c3)c(Cc3ccc(S(N)(=O)=O)cc3F)c2CC2CC2)n1 [Compound 335]	–	IC50 [1]: 1000 to 57000 nM
NS(=O)(=O)c1ccc(Cc2c(-c3cccc(OCc4ccccc4)c3)nn(-c3nc(C(=O)O)cs3)c2CC2CC2)cc1 [Compound 339]	< 100	–
NS(=O)(=O)c1ccc(Cc2c(-c3cccc(OCc4ccccc4)c3)nn(-c3nc(C(=O)O)cs3)c2CC2CC2)cc1F [Compound 340]	< 100	–
NS(=O)(=O)c1ccc(Cc2c(-c3cccc(OCc4ccccc4)c3)nn(-c3nc(C(=O)O)cs3)c2CC2CC2)c(F)c1 [Compound 341]	< 100	–
N[S+](=O)([O-])c1ccc(Cc2c(CC3CC3)nn(-c3nc(C(=O)O)cs3)c2-c2cccc(OCc3ccccc3)c2)cc1 [Compound 342]	1000 to 57000	–
CCOC(=O)c1csc(-n2nc(-c3ccc(F)c(-c4ccc(C)cc4)c3)c(Cc3ccc(S(N)(=O)=O)c(F)c3)c2CC2CC2)n1 [Compound 343]	1000 to 57000	–
CCOC(=O)c1csc(-n2nc(-c3cccc(-c4ccc(C)cc4)c3)c(Cc3ccc(S(N)(=O)=O)cc3F)c2CC2CC2)n1 [Compound 344]	> 57000	–
CCOC(=O)c1csc(-n2nc(-c3ccc(F)c(-c4ccc(F)cc4)c3)c(Cc3ccc(S(N)(=O)=O)cc3F)c2CC2CC2)n1 [Compound 345]	1000 to 57000	–
Cc1ccc(-c2cccc(-c3c(Cc4ccc([S+](N)(=O)[O-])c(F)c4)c(C4CC4)nn3-c3nc(C(=O)O)cs3)c2)cc1 [Compound 346]	1000 to 57000	–
Cc1ccc(-c2cccc(-c3nn(-c4nc(C(=O)O)cs4)c(C4CC4)c3Cc3ccc(S(N)(=O)=O)c(F)c3)c2)cc1 [Compound 347]	< 100	–
N[S+](=O)([O-])c1ccc(Cc2c(C3CC3)nn(-c3nc(C(=O)O)cs3)c2-c2cccc(-c3ccc(F)cc3)c2)cc1F [Compound 348]	1000 to 57000	–
NS(=O)(=O)c1ccc(Cc2c(-c3cccc(-c4ccc(F)cc4)c3)nn(-c3nc(C(=O)O)cs3)c2C2CC2)cc1F [Compound 349]	< 100	–
N[S+](=O)([O-])c1ccc(Cc2c(C3CC3)nn(-c3nc(C(=O)O)cs3)c2-c2cccc(-c3cccc(F)c3)c2)cc1F [Compound 350]	1000 to 57000	–
NS(=O)(=O)c1ccc(Cc2c(-c3cccc(-c4cccc(F)c4)c3)nn(-c3nc(C(=O)O)cs3)c2C2CC2)cc1F [Compound 351]	< 100	–
COc1cccc(-c2cccc(-c3c(Cc4ccc([S+](N)(=O)[O-])c(F)c4)c(C4CC4)nn3-c3nc(C(=O)O)cs3)c2)c1 [Compound 352]	1000 to 57000	–
COc1cccc(-c2cccc(-c3nn(-c4nc(C(=O)O)cs4)c(C4CC4)c3Cc3ccc(S(N)(=O)=O)c(F)c3)c2)c1 [Compound 353]	< 100	–
Cc1ccc(-c2cccc(-c3c(Cc4ccc(S(N)(=O)=O)cc4F)c(C4CC4)nn3-c3nc(C(=O)O)cs3)c2)cc1 [Compound 354]	1000 to 57000	–
Cc1ccc(-c2cccc(-c3nn(-c4nc(C(=O)O)cs4)c(C4CC4)c3Cc3ccc(S(N)(=O)=O)cc3F)c2)cc1 [Compound 355]	< 100	–
NS(=O)(=O)c1ccc(Cc2c(C3CC3)nn(-c3nc(C(=O)O)cs3)c2-c2cccc(-c3ccc(F)cc3)c2)c(F)c1 [Compound 356]	1000 to 57000	–
NS(=O)(=O)c1ccc(Cc2c(-c3cccc(-c4ccc(F)cc4)c3)nn(-c3nc(C(=O)O)cs3)c2C2CC2)c(F)c1 [Compound 357]	< 100	–

Compound	IC50 [3] [nM]	further results
NS(=O)(=O)c1ccc(Cc2c(C3CC3)nn(-c3nc(C(=O)O)cs3)c2-c2cccc(-c3cccc(F)c3)c2)c(F)c1 [Compound 358]	1000 to 57000	–
NS(=O)(=O)c1ccc(Cc2c(-c3cccc(-c4cccc(F)c4)c3)nn(-c3nc(C(=O)O)cs3)c2C2CC2)c(F)c1 [Compound 359]	< 100	–
COc1cccc(-c2cccc(-c3c(Cc4ccc(S(N)(=O)=O)cc4F)c(C4CC4)nn3-c3nc(C(=O)O)cs3)c2)c1 [Compound 360]	1000 to 57000	–
COc1cccc(-c2cccc(-c3nn(-c4nc(C(=O)O)cs4)c(C4CC4)c3Cc3ccc(S(N)(=O)=O)cc3F)c2)c1 [Compound 361]	< 100	–
Cc1ccc(-c2cc(-c3nn(-c4nc(C(=O)O)cs4)c(CC4CC4)c3Cc3ccc(S(N)(=O)=O)c(F)c3)ccc2F)cc1 [Compound 362]	< 100	–
Cc1ccc(-c2cccc(-c3nn(-c4nc(C(=O)O)cs4)c(CC4CC4)c3Cc3ccc(S(N)(=O)=O)cc3F)c2)cc1 [Compound 363]	< 100	–
N[S+](=O)([O-])c1ccc(Cc2c(-c3ccc(F)c(-c4ccc(F)cc4)c3)nn(-c3nc(C(=O)O)cs3)c2CC2CC2)c(F)c1 [Compound 364]	< 100	–
NS(=O)(=O)c1ccc(Cc2c(-c3cccc(N4CCC(C(F)(F)F)CC4)c3)nn(-c3nc(C(=O)O)cs3)c2CC2CC2)cc1F [Compound 392]	< 100	–
COc1ccc(-c2cc(O)n(-c3nc(C(=O)O)cs3)n2)cc1 [Compound 424]	> 57000	–
O=C(O)c1csc(-n2nc(-c3ccc(F)cc3)cc2O)n1 [Compound 425]	> 57000	–
O=C(O)c1csc(-n2nc(-c3ccc(Cl)cc3)cc2C(F)(F)F)n1 [Compound 427]	1000 to 57000	–
Cc1oc(=O)oc1COC(=O)c1csc(-n2nc(-c3ccc(F)c(C#CC4CCCC4)c3)c(Cc3ccc(S(N)(=O)=O)c(F)c3)c2CC2CC2)n1 [Compound 441]	> 57000	–
CCOC(=O)c1csc(-n2nc(-c3ccc(F)c(C#Cc4ccc(C)s4)c3)c(Cc3ccc(S(N)(=O)=O)c(F)c3)c2CC2CC2)n1 [Compound 447]	> 57000	–
CC(C)(C)/C=C/c1cc(-c2nn(-c3nc(C(=O)O)cs3)c(CC3CC3)c2Cc2ccc([S+](N)(=O)[O-])c(F)c2)ccc1F [Compound 448]	< 100	–
Cc1ccc(C#Cc2cccc(-c3nn(-c4nc(C(=O)O)cs4)c(CC4CC4)c3Cc3ccc(S(N)(=O)=O)c(F)c3)c2)s1 [Compound 449]	< 100	–
C/C=C(\C)c1cc(-c2nn(-c3nc(C(=O)O)cs3)c(CC3CC3)c2Cc2ccc(S(N)(=O)=O)c(F)c2)ccc1F [Compound 450]	< 100	–
NS(=O)(=O)c1ccc(Cc2c(-c3cccc4ccccc34)nn(-c3nc(C(=O)O)cs3)c2O)cc1 [Compound 451]	1000 to 57000	–
NS(=O)(=O)c1ccc(Cc2c(-c3cccnc3)nn(-c3nc(C(=O)O)cs3)c2O)cc1 [Compound 453, 2-(5-hydroxy-3-(pyridin-3-yl)-4-(4-sulfamoylbenzyl)-1H-pyrazol-1-yl)thiazole-4-carboxylic acid]	1000 to 57000	–
NS(=O)(=O)c1ccc(Cc2c(-c3cccc4cc(F)ccc34)nn(-c3nc(C(=O)O)cs3)c2O)cc1 [Compound 454, 2-(3-(6-fluoronaphthalen-1-(57%)yl)-5-hydroxy-4-(4-sulfamoylbenzyl)-1H-pyrazol-1-yl)thiazole-4-carboxylic acid]	1000 to 57000	–
COc1c(Cc2ccc(S(N)(=O)=O)cc2)c(-c2ccc(F)c(F)c2)nn1-c1nc(C(=O)O)cs1 [Compound 455, 2-(3-(3,4-difluorophenyl)-5-methoxy-4-(4-sulfamoylbenzyl)-1H-pyrazol-1-yl)thiazole-4-carboxylic acid]	100 to 1000	–
COc1cccc(-c2cc(-c3nn(-c4nc(C(=O)O)cs4)cc3Cc3ccc(S(N)(=O)=O)cc3)ccc2F)c1 [Compound 456, 2-(3-(6-fluoro-3′-methoxy-[1,1′-biphenyl]-3-yl)-4-(4-sulfamoylbenzyl)-1H-pyrazol-1-yl)thiazole-4-carboxylic acid]	< 100	–
NS(=O)(=O)c1ccc(Cc2cn(-c3nc(C(=O)O)cs3)nc2-c2ccc(F)c(-c3cccc(Cl)c3)c2)cc1 [Compound 457, 2-(3-(3′-chloro-6-fluoro-[1,1′-biphenyl]-3-yl)-4-(4-sulfamoylbenzyl)-1H-pyrazol-1-yl)thiazole-4-carboxylic acid]	< 100	–
CC(C)Oc1cccc(-c2nn(-c3nc(C(=O)O)cs3)cc2Cc2ccc(S(N)(=O)=O)cc2)c1 [Compound 459, 2-(3-(3-isopropoxyphenyl)-4-(4-sulfamoylbenzyl)-1H-pyrazol-1-yl)thiazole-4-carboxylic acid]	< 100	–
NS(=O)(=O)c1ccc(Cc2cn(-c3nc(C(=O)O)cs3)nc2-c2cccc(OC3CCCC3)c2)cc1 [Compound 460, 2-(3-(3-(cyclopentyloxy)phenyl)-4-(4-sulfamoylbenzyl)-1H-pyrazol-1-yl)thiazole-4-carboxylic acid]	< 100	–
NS(=O)(=O)c1ccc(Cc2cn(-c3nc(C(=O)O)cs3)nc2-c2cccc(OCC3CCOC3)c2)cc1 (stereo not shown) [Compound 461, 2-(4-(4-sulfamoylbenzyl)-3-(3-((tetrahydrofuran-3-yl)methoxy)phenyl)-1H-pyrazol-1-yl)thiazole-4-carboxylic acid]	< 100	–
COc1cccc(COc2cccc(-c3nn(-c4nc(C(=O)O)cs4)cc3Cc3ccc(S(N)(=O)=O)cc3)c2)c1 [Compound 462, 2-(3-(3-((3-methoxybenzyl)oxy)phenyl)-4-(4-sulfamoylbenzyl)-1H-pyrazol-1-yl)thiazole-4-carboxylic acid]	< 100	–
